Experimental data as given in patent US20120034312A1, “4-ISOPROPYL-3-METHYLPHENOL FOR THE TREATMENT OF INFLAMMATION” (Glaxo Group Limited, priority 2009, published 2012).

How the values were obtained:
[1] = test system: LPS stimulated Raw 264.7 Macrophage cells
Procedure: Anti-inflammatory activity was assessed on classical inflammation model LPS stimulated Raw 264.7 Macrophage cells. Inflammation response was quantified by measurements of the release of Prostaglandin E2 (PGE2) from the cells. Cells were exposed to E.coli lipopolysaccharide (LPS) with or without IPMP for 24 hours prior to assay. […] All values were normalized to cell viability of same sample, then to the inflammatory response of the cells without the addition of agents or LPS (100%).

[2] = test system: Human Gingival Fibroblasts; assay: PGE2 release from LPS exposed Human Gingival Fibroblasts; assay type: cell-based; conditions: for PGE2 Response (with LPS): media only without LPS = 100
Procedure: To further evaluate anti-inflammatory activity of IPMP in the oral cavity, a similar experiment was conducted on Human Gingival Fibroblasts. Cells were exposed to LPS as well as three non-irritating doses of IPMP (see example 1).
Another further experiment with IPMP and zinc chloride was conducted on Human Gingival Fibroblasts.

SMILES | Cell death / cell proliferation at nonirritative dose [1] | Irritation of cells by IPMP by itself [1] | PGE2 Response (without LPS) ([1]; 50 μM IPMP, 24 hours, no LPS, normalized to cell viability and to cells without agents or LPS (100%)) [%] | PGE2 Response (with LPS) ([1]; 50 μM IPMP, E.coli LPS, 24 hours, normalized to cell viability and to cells without agents or LPS (100%)) [%] | PGE2 Response (with LPS) ([2]; 2 μM IPMP) [%] | PGE2 Response (with LPS) ([2]; 10 μM IPMP) [%] | PGE2 Response (with LPS) ([2]; 50 μM IPMP) [%] | Suppression of LPS induced inflammation ([2]; 2, 10, 50 μM IPMP, with LPS) | PGE2 Response (with LPS) ([2]; 55 μM Zinc Chloride) [%]
Cc1cc(O)ccc1C(C)C [IPMP, 4-isopropyl-3-methylphenol] | neither cause cell death nor affect cell proliferation | did not irritate the cells | 101 ± 0.0 | 141 ± 6.4 | 146 ± 46.6 | 127 ± 21.6 | 103 ± 13.3 | suppresses LPS induced inflammation in a dose-dependent manner | 
[Cl-].[Cl-].[Zn+2] [Zinc Chloride, zinc chloride, reference compound] |  |  |  |  |  |  |  |  | 171 ± 2.9
